# Reference: patent US12053452B2 (priority 2021, dated 2024)
# What was measured:
# [1] = autistic adults, MDMA-assisted psychotherapy; cited from earlier work
# [2] = human urine, after racemic MDMA; cited from earlier work
# [3] = test system: BTBR mice; experiment: Sociability test, BTBR; assay type: in vivo; settings: 3.0 mg/kg IP
# Protocol: This assay was conducted in adult male C57 and BTBR mice (n=6 per group) in a dedicated conditioning room where ambient light, sound, and human contact were tightly controlled. Social preference chambers consist of two polycarbonate boxes (13.5 cm wide×22.5 cm tall×31.0 cm deep), floored with rough-textured black ABS plastic, and connected to one another by a 1.25″ PVC T-junction. An infrared photobeam emitter/detector array is mounted at each intersection of the T-junction and each preference compartment, and as a mouse traversed the apparatus, it would break the photobeam upon entry to or exit from each preference compartment. Beam breaks started or stopped a counter on an interfaced computer, allowing automated collection of time spent in each compartment. At the end of each test, data were reported as time (in seconds) spent in each compartment, the number of entries into each compartment, and the average time spent in each compartment following an entry. Social preference tests were conducted in an iterative manner, with each test subject completing four distinct phases as described below. Between testing sessions, chambers were sanitized by wiping the insides with a disinfectant product provided by the UAMS Department of Laboratory Animal Medicine. […]
structure (smiles),measurement,setting,value
"CNC(C)Cc1ccc2c(c1)OCO2 (racemic) [racemic MDMA, 1-(1,3-benzodioxol-5-yl)-N-methylpropan-2-amine]",social anxiety symptoms,[1],rapid and durable improvement in social anxiety symptoms
same,enantiomer with higher Cmax,[2],Higher R-enantiomer Cmax
"CN[C@@H](C)Cc1ccc2c(c1)OCO2 [S(+)-MDMA, (2S)-1-(1,3-benzodioxol-5-yl)-N-methylpropan-2-amine]",sociability (time spent with the stranger mouse vs dummy),[3],did not alter sociability
